Each compound was assayed against T1, human OX2 receptor (Homo sapiens, UniProt O43614) (assay: Measurement of orexin type 2 receptor agonist activity (Fluo-4 calcium fluorescence, FDSS)). Settings: compound at 3 μM; CHO cells forcibly expressing human OX2 receptor; DMSO = 0%, orexin A (human) 10 nM = 100%.
T1 construct: expressed in transfected cells
T1 sequence (O43614 1-444): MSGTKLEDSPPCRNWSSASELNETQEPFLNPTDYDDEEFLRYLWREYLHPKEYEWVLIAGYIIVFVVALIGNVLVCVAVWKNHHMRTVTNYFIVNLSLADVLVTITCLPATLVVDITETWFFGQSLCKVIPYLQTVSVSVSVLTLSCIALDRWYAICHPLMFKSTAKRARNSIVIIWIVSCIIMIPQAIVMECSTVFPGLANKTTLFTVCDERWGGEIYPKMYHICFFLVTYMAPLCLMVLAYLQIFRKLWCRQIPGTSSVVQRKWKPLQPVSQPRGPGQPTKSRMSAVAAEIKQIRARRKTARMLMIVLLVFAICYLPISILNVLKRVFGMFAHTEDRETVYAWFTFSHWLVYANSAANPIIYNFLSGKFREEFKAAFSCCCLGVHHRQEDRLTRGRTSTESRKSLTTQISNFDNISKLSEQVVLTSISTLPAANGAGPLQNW
Assay type: cell-based
From the text: Experimental Example 1: Obtainment of Cell Stably Expressing Human Orexin Type 2 Receptor (hOX2R)
To obtain a cell clone stably expressing human orexin type 2 receptor, human orexin type 2 receptor cDNA was inserted into pcDNA3.1(+) plasmid vector (Invitrogen), and a plasmid DNA for expression of human orexin type 2 receptor (pcDNA3.1(+)/hOX2R) was cloned. The plasmid DNA was introduced into CHO-dhfr cell by an electroporation method, and human orexin type 2 receptor expressing clone cells were obtained by limiting dilution method by using G418 drug resistance as a selection marker.
Experimental Example 2: Measurement of Orexin Type 2 Receptor Agonist Activity
CHO cells forcibly expressing human OX2 receptor were seeded in each well of 384 well black transparent bottom plate (BD Falcon) at 7,500 cells/well, and cultured for one day in a 5% CO2 incubator at 37° C. After removal of the medium in the cell plate, assay buffer A containing a calcium indicator (HESS (Life Technologies), 20 mM HEPES (Life Technologies), 0.1% BSA (Wako Pure Chemical Industries, Ltd.), 2.5 μg/mL Fluo-4 AM (DOJINDO Chemical), 0.08% Pluronic F127 (DOJINDO Chemical), 1.25 mM probenecid (DOJINDO Chemical)) was added at 30 μL/well. The plate was stood for 30 min in a 5% CO2 incubator at 37° C., and further stood at room temperature for 30 min. A test compound prepared by diluting with assay buffer B (HESS, 20 mM HEPES, 0.1% BSA) was added at 10 μL/well, and the fluorescence value was measured by FDSSμCELL (Hamamatsu Photonics K.K.) every one sec for 1 min, and thereafter every two sec for 1 min 40 sec. The activity (%) of the test compound was calculated assuming that variation in the fluorescence value when DMSO was added instead of the test compound was 0% […], and variation in the fluorescence value when orexin A (human) (PEPTIDE INSTITUTE, INC.) was added at the final concentration of 10 nM was 100% […]. The activity of each compound at the concentration of 3 μM was shown below.

| SMILES | OX2R agonist activity (3 μM, %) |
| --- | --- |
| COc1ccc(-c2cccc(C(=O)N(C)C)c2)cc1S(=O)(=O)Nc1cccc(O[C@H]2CCN(C(=O)c3cnn(C)c3-c3ccccc3)C2)c1 [Example 13, 4′-methoxy-N,N-dimethyl-3′-((3-(((3S)-1-((1-methyl-5-phenyl-1H-pyrazol-4-yl)carbonyl)pyrrolidin-3-yl)oxy)phenyl)sulfamoyl)biphenyl-3-carboxamide] | 97% |
| COc1ccccc1S(=O)(=O)Nc1cccc(O[C@@H]2CN(C(=O)c3cc(C)ccc3C)C[C@H]2F)c1 (relative stereo) [Example 107, trans-N-(3-((1-(2,5-dimethylbenzoyl)-4-fluoropyrrolidin-3-yl)oxy)phenyl)-2-methoxybenzenesulfonamide] | 77% |
| COc1ccccc1S(=O)(=O)Nc1cccc(O[C@@H]2CN(C(=O)c3cc(C)ccc3C)C[C@H]2OC)c1 (relative stereo) [Example 56, trans-N-(3-((1-(2,5-dimethylbenzoyl)-4-methoxypyrrolidin-3-yl)oxy)phenyl)-2-methoxybenzenesulfonamide] | 101% |
| COc1ccccc1S(=O)(=O)Nc1cccc(O[C@@H]2CN(C(=O)c3cc(C)ccc3C)C[C@H]2C)c1 (relative stereo) [Example 92, trans-N-(3-((1-(2,5-dimethylbenzoyl)-4-methylpyrrolidin-3-yl)oxy)phenyl)-2-methoxybenzenesulfonamide] | 102% |
| COc1ccc(N2CCCCC2=O)cc1S(=O)(=O)Nc1cccc(O[C@H]2CCN(C(=O)c3c(C)cccc3C)C2)c1 [Example 30, N-(3-(((3S)-1-(2,6-dimethylbenzoyl)pyrrolidin-3-yl)oxy)phenyl)-2-methoxy-5-(2-oxopiperidin-1-yl)benzenesulfonamide] | 89% |
| COc1ccc(-c2cccc(C(=O)N(C)C)c2)cc1S(=O)(=O)Nc1cccc(O[C@H]2CCN(C(=O)c3cccc(C)c3)C2)c1 [Example 6, 4′-methoxy-N,N-dimethyl-3′-((3-(((3S)-1-(3-methylbenzoyl)pyrrolidin-3-yl)oxy)phenyl)sulfamoyl)biphenyl-3-carboxamide] | 101% |
| CO[C@@H]1CN(C(=O)c2cc(C)ccc2C)C[C@H]1Oc1cccc(NS(=O)(=O)c2sccc2Cl)c1 [Example 84, 3-chloro-N-(3-(((3R,4R)-1-(2,5-dimethylbenzoyl)-4-methoxypyrrolidin-3-yl)oxy)phenyl)thiophene-2-sulfonamide] | 96% |
| COc1ccccc1S(=O)(=O)Nc1cccc(O[C@@H]2CN(C(=O)C3(c4ccccc4)CC3)C[C@H]2OC)c1 [Example 76, 2-methoxy-N-(3-(((3R,4R)-4-methoxy-1-((1-phenylcyclopropyl)carbonyl)pyrrolidin-3-yl)oxy)phenyl)benzenesulfonamide] | 79% |
| COc1ccc(-c2cccc(C(=O)N(C)C)c2)cc1S(=O)(=O)Nc1cccc(O[C@H]2CCN(C(=O)c3cc(C)ccc3C)C2)c1 [Example 32, 3′-((3-(((3S)-1-(2,5-dimethylbenzoyl)pyrrolidin-3-yl)oxy)phenyl)sulfamoyl)-4′-methoxy-N,N-dimethylbiphenyl-3-carboxamide] | 92% |
| COc1ccc(N2CCOCC2)cc1S(=O)(=O)Nc1cccc(O[C@H]2CCN(C(=O)c3c(C)cccc3C)C2)c1 [Example 31, N-(3-(((3S)-1-(2,6-dimethylbenzoyl)pyrrolidin-3-yl)oxy)phenyl)-2-methoxy-5-(morpholin-4-yl)benzenesulfonamide] | 75% |
| Cc1cccc(C)c1C(=O)N1CC[C@H](Oc2cccc(NS(=O)(=O)c3ccccc3Cl)c2)C1 [Example 37, 2-chloro-N-(3-(((3S)-1-(2,6-dimethylbenzoyl)pyrrolidin-3-yl)oxy)phenyl)benzenesulfonamide] | 35% |
| COc1ccc(N2CCCC3(CCCCO3)C2)cc1S(=O)(=O)Nc1cccc(O[C@H]2CCN(C(=O)c3c(C)cccc3C)C2)c1 (stereo partly drawn) [Example 41, N-(3-(((3S)-1-(2,6-dimethylbenzoyl)pyrrolidin-3-yl)oxy)phenyl)-2-methoxy-5-(1-oxa-8-azaspiro[5.5]undec-8-yl)benzenesulfonamide] | 97% |
| COc1ccccc1S(=O)(=O)Nc1cccc(O[C@@H]2CN(C(=O)c3cc(C)ccc3C)C[C@H]2C#N)c1 (relative stereo) [Example 126, trans-N-(3-((4-cyano-1-(2,5-dimethylbenzoyl)pyrrolidin-3-yl)oxy)phenyl)-2-methoxybenzenesulfonamide] | 67% |
| CC[C@@H]1CN(C(=O)c2cc(C)ccc2C)C[C@H]1Oc1cccc(NS(=O)(=O)c2ccccc2OC)c1 (relative stereo) [Example 93, trans-N-(3-((1-(2,5-dimethylbenzoyl)-4-ethylpyrrolidin-3-yl)oxy)phenyl)-2-methoxybenzenesulfonamide] | 80% |
| COc1ccccc1S(=O)(=O)Nc1cc(C)cc(O[C@@H]2CN(C(=O)c3cc(C)ccc3C)C[C@H]2OC)c1 (relative stereo) [Example 105, trans-N-(3-((1-(2,5-dimethylbenzoyl)-4-methoxypyrrolidin-3-yl)oxy)-5-methylphenyl)-2-methoxybenzenesulfonamide] | 94% |
| COc1ccc(-c2cccc(C(=O)N(C)C)c2)cc1S(=O)(=O)Nc1cccc(O[C@H]2CCN(C(=O)c3c(C)cccc3C)C2)c1F [Example 71, 3′-((3-(((3S)-1-(2,6-dimethylbenzoyl)pyrrolidin-3-yl)oxy)-2-fluorophenyl)sulfamoyl)-4′-methoxy-N,N-dimethylbiphenyl-3-carboxamide] | 89% |
| COc1ccccc1S(=O)(=O)Nc1ccc(F)c(O[C@@H]2CN(C(=O)c3cc(C)ccc3C)C[C@H]2OC)c1 (relative stereo) [Example 86, trans-N-(3-((1-(2,5-dimethylbenzoyl)-4-methoxypyrrolidin-3-yl)oxy)-4-fluorophenyl)-2-methoxybenzenesulfonamide] | 80% |
| COc1ccccc1S(=O)(=O)Nc1cc(F)cc(O[C@@H]2CN(C(=O)c3cc(C)ccc3C)C[C@H]2OC)c1 (relative stereo) [Example 100, trans-N-(3-((1-(2,5-dimethylbenzoyl)-4-methoxypyrrolidin-3-yl)oxy)-5-fluorophenyl)-2-methoxybenzenesulfonamide] | 102% |
| COc1ccc(-c2cccc(C(=O)N(C)C)c2)cc1S(=O)(=O)Nc1cc(OC2CCN(C(=O)c3cccc(C)c3)C2)ccn1 (stereo not drawn) [Example 49, 4′-methoxy-N,N-dimethyl-3′-((4-((1-(3-methylbenzoyl)pyrrolidin-3-yl)oxy)pyridin-2-yl)sulfamoyl)biphenyl-3-carboxamide] | 64% |
| COc1ccc(-c2cccc(C(=O)N(C)C)c2)cc1S(=O)(=O)Nc1cccc(O[C@H]2CCN(C(=O)C3(c4ccccc4)CC3)C2)c1 [Example 16, 4′-methoxy-N,N-dimethyl-3′-((3-(((3S)-1-((1-phenylcyclopropyl)carbonyl)pyrrolidin-3-yl)oxy)phenyl)sulfamoyl)biphenyl-3-carboxamide] | 99% |
| COc1ccc(-c2cccc(C(=O)N(C)C)c2)cc1S(=O)(=O)Nc1cccc(N(C)C2CCN(C(=O)c3cc(C)ccc3C)C2)c1 (stereo not drawn) [Example 58, 3′-((3-((1-(2,5-dimethylbenzoyl)pyrrolidin-3-yl)(methyl)amino)phenyl)sulfamoyl)-4′-methoxy-N,N-dimethylbiphenyl-3-carboxamide] | 104% |

Reference: patent US11034700B2, “Substituted pyrrolidine compound and use thereof” (Takeda Pharmaceutical Company Limited, priority 2017, dated 2021)
